This note sets out measurements from patent publication US12622859B2, “Organic compounds” (GIVAUDAN SA, priority 2017, dated 2026).

The nature of one data set: Solubility in water. In kind it is physicochemical. The source says: (§1) Consequently, the extract is preferably obtained by extracting the compounds from plant material using an alcohol, and more particularly ethanol. It is particularly preferred if the alcohol is water-free.
A short description of a further data set: Stability in water. In kind it is physicochemical.
Source text: as §1

Each structure is given as a SMILES string.

For the compound `C[C@@H]1O[C@@H](O[C@@H]2[C@@H](O)[C@H](OCCc3ccc(O)c(O)c3)O[C@H](CO)[C@H]2OC(=O)/C=C/c2ccc(O)c(O)c2)[C@H](O)[C@H](O)[C@H]1O` [acteoside], the solubility in water entry in “Solubility in water” is “water-soluble”. Also, the stability in water result in the data set “Stability in water” is recorded as “unstable in water”.

Consider `C[C@@H]1O[C@@H](O[C@@H]2[C@H]3O[C@@H](c4ccc(O)c(O)c4)CO[C@@H]3O[C@H](CO)[C@H]2OC(=O)/C=C/c2ccc(O)c(O)c2)[C@H](O)[C@H](O)[C@H]1O` [crenatoside], for which, in the data set “Solubility in water”, the solubility in water entry was “water-soluble”. In addition, in the data set “Stability in water”, the stability in water result was “unstable in water”.
